Source: patent US20240190855A1 (Relay Therapeutics, Inc., priority 2021, published 2024)

Target: T1, CDK2/Cyclin E complex (Homo sapiens, UniProt P24941)
T1 construct: purchased Eurofins 14-475
Assay: CDK2/Cyclin E fluorescence-based microfluidic mobility shift assay (CDK2 Biochemical Caliper Assay)
Conditions: read-out: Biochemical CDK2/CyclinE Caliper IC50
In short: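 Microfluidic mobility-shift readout after EDTA termination measured phosphorylation of fluorescent FL Peptide 18 (1.5 uM final) in a 20 hr room-temperature reaction. Compounds were tested at 11 concentrations (3-fold).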

| Structure (SMILES) | IC50 [nM] |
| --- | --- |
| COCc1cc2c(Nc3cc([C@H]4C[C@@H](OC(=O)NC5CCC5)CO4)[nH]n3)nccn2n1 [Example 666] | ≤ 100 |
| CC(C)NC(=O)O[C@H]1CO[C@@H](c2cc(Nc3nccn4nc(COC(F)F)cc34)n[nH]2)C1 [Example 667] | ≤ 100 |
| COCc1cc2c(Nc3cc([C@H]4C[C@@H](OC(=O)NC5(COC)CC5)CO4)[nH]n3)nccn2n1 [Example 668] | ≤ 100 |
| CC(C)NC(=O)O[C@H]1CO[C@@H](c2cc(Nc3nccn4nc(CN5CCOCC5)cc34)n[nH]2)C1 [Example 669] | ≤ 100 |
| COCc1cc(C(=O)Nc2ncc([C@H]3C[C@@H](COC(=O)NC(C)C)C3)s2)n(C)n1 [Example 670] | ≤ 100 |
| COCc1cc2c(Nc3cc([C@H]4C[C@@H](Oc5nncn5C(C)C)CO4)[nH]n3)nccn2n1 [Example 671] | 100 to 250 |
| CC(C)NC(=O)O[C@@H]1CC[C@H](c2cc(NC(=O)c3cc(CN4CC(F)(F)C4)nn3C)n[nH]2)C1 [Example 672] | ≤ 100 |
| CC(C)NC(=O)O[C@H]1CO[C@@H](c2cc(Nc3nccn4nc(CN5CCC5)cc34)n[nH]2)C1 [Example 673] | ≤ 100 |
| COCc1cc2c(Nc3cc([C@H]4C[C@@H](OC(=O)N[C@H]5CC5(C)C)CO4)[nH]n3)nccn2n1 [Example 677] | ≤ 100 |
| COCc1nc2ccnc(Nc3cc([C@H]4C[C@@H](OC(=O)NC5(C)CC5)CO4)[nH]n3)c2s1 [Example 681] | ≤ 100 |
| COCc1nc2ccnc(Nc3cc([C@H]4C[C@@H](OC(=O)NC5(COC)CC5)CO4)[nH]n3)c2s1 [Example 682] | ≤ 100 |
| COCc1cc2c(Nc3cc([C@H]4C[C@@H](OC(=O)N[C@H]5C[C@@H]5C)CO4)[nH]n3)nccn2n1 [Example 687] | ≤ 100 |
| COCc1cc2c(Nc3cc([C@H]4C[C@@H](OC(=O)N[C@@H](C)C5(C)COC5)CO4)[nH]n3)nccn2n1 [Example 688] | 100 to 250 |
| COCc1cc(C(=O)Nc2cc([C@H]3C[C@@H](COc4[nH]ncc4C(C)C)C3)[nH]n2)n(C)n1 [Example 689] | ≤ 100 |
| COCc1cc2c(Nc3cc([C@H]4C[C@@H](COc5nncn5C5(C)CC5)C4)[nH]n3)nccn2n1 [Example 690] | ≤ 100 |
| COCc1cc(C(=O)Nc2cc([C@H]3C[C@@H](COc4[nH]ncc4C(C)(C)C)C3)[nH]n2)n(C)n1 [Example 691] | ≤ 100 |
| COCc1nc2ccnc(Nc3cc([C@H]4C[C@@H](OC(=O)NC(C)(C)C)CO4)[nH]n3)c2s1 [Example 692] | ≤ 100 |
| COCc1cc2c(Nc3cc([C@H]4C[C@@H](OC(=O)NCCC5CCOCC5)CO4)[nH]n3)nccn2n1 [Example 694] | 1000 to 100000 |
| COCc1cc2c(Nc3cc([C@H]4C[C@@H](OC(=O)NC(C)(C)COC)CO4)[nH]n3)nccn2n1 [Example 695] | ≤ 100 |
| COCc1nc2ccnc(Nc3cc([C@H]4C[C@@H](OC(=O)NC5(C)COC5)CO4)[nH]n3)c2s1 [Example 696] | ≤ 100 |
| COCc1cc2c(Nc3cc([C@H]4C[C@@H](OC(=O)NC5(C#N)CC5)CO4)[nH]n3)nccn2n1 [Example 698] | ≤ 100 |
| COCc1cc2c(Nc3cc([C@H]4C[C@@H](OC(=O)NC5(C6CC6)CC5)CO4)[nH]n3)nccn2n1 [Example 702] | ≤ 100 |
| COCc1cc2c(Nc3cc([C@H]4C[C@@H](OC(=O)NC(C)(C)CN5CCOCC5)CO4)[nH]n3)nccn2n1 [Example 703] | 250 to 1000 |
| Cn1nc(COC(F)(F)F)cc1C(=O)Nc1cc([C@H]2C[C@@H](OC(=O)NC3(C)CC3)CO2)[nH]n1 [Example 704] | ≤ 100 |
| CC(C)NC(=O)O[C@H]1CO[C@@H](c2cc(NC(=O)c3cc(COC(F)(F)F)nn3C)n[nH]2)C1 [Example 706] | ≤ 100 |
| COCc1cc2c(Nc3cc([C@H]4C[C@@H](COc5[nH]ncc5C(C)(C)C)C4)[nH]n3)nccn2n1 [Example 708] | ≤ 100 |
| COCc1cc2c(Nc3cc([C@H]4C[C@@H](OC(=O)N[C@H](C)C5COC5)CO4)[nH]n3)nccn2n1 [Example 711] | 250 to 1000 |
| Cn1nc(COC(F)(F)F)cc1C(=O)Nc1cc([C@H]2C[C@@H](OC(=O)NC(C)(C)C)CO2)[nH]n1 [Example 713] | ≤ 100 |
| CC1(NC(=O)O[C@H]2CO[C@@H](c3cc(Nc4nccn5nc(COC(F)F)cc45)n[nH]3)C2)CC1 [Example 714] | ≤ 100 |
| COCc1cc2c(Nc3cc([C@@H]4C[C@H](Oc5nncn5C(C)C)CO4)[nH]n3)nccn2n1 [Example 715] | ≤ 100 |

Now from value to compound:

| IC50 [nM] | Structure (SMILES) |
| --- | --- |
| ≤ 100 | COCc1cc2c(Nc3cc([C@H]4C[C@@H](OC(=O)NC5(C)CCC5)CO4)[nH]n3)nccn2n1 [Example 674] |
| ≤ 100 | CC[C@H](C)NC(=O)O[C@H]1CO[C@@H](c2cc(Nc3nccn4nc(COC)cc34)n[nH]2)C1 [Example 675] |
| ≤ 100 | CC(C)NC(=O)O[C@H]1CO[C@@H](c2cc(Nc3nccn4nc(CN5CCCC5)cc34)n[nH]2)C1 [Example 676] |
| 100 to 250 | COCc1cc2c(Nc3cc([C@H]4C[C@@H](OC(=O)NC5(c6cnn(C)c6)CC5)CO4)[nH]n3)nccn2n1 [Example 678] |
| ≤ 100 | COCc1cc2c(Nc3cc([C@H]4C[C@@H](OC(=O)N[C@@H]5CC5(C)C)CO4)[nH]n3)nccn2n1 [Example 679] |
| ≤ 100 | COCc1cc2c(Nc3cc([C@H]4C[C@@H](OC(=O)NC5(CF)CC5)CO4)[nH]n3)nccn2n1 [Example 680] |
| 250 to 1000 | COCc1cc2c(Nc3cc([C@H]4C[C@@H](OC(=O)NC5COC5)CO4)[nH]n3)nccn2n1 [Example 683] |
| ≤ 100 | COCc1cc2c(Nc3cc([C@H]4C[C@@H](OC(=O)NC56CCC(CC5)CC6)CO4)[nH]n3)nccn2n1 [Example 684] |
| 1000 to 100000 | COCc1cc2c(Nc3cc([C@H]4C[C@@H](OC(=O)N[C@H](C)C5(C)COC5)CO4)[nH]n3)nccn2n1 [Example 685] |
| 100 to 250 | COCc1cc2c(Nc3cc([C@H]4C[C@@H](OC(=O)N[C@@H](C)C5COC5)CO4)[nH]n3)nccn2n1 [Example 686] |
| 1000 to 100000 | COCc1cc2c(Nc3cc([C@H]4C[C@@H](OC(=O)N[C@H]5CC[C@@H](OC)CC5)CO4)[nH]n3)nccn2n1 [Example 693] |
| ≤ 100 | COCc1cc2c(Nc3cc([C@H]4C[C@@H](OC(=O)N[C@@H]5C[C@H]5C)CO4)[nH]n3)nccn2n1 [Example 697] |
| ≤ 100 | CC(C)n1cnnc1O[C@H]1CO[C@@H](c2cc(NC(=O)c3cc(COC(F)(F)F)nn3C)n[nH]2)C1 [Example 699] |
| ≤ 100 | COCc1cc2c(Nc3cc([C@H]4C[C@@H](OC(=O)NC5(C)COC5)CO4)[nH]n3)nccn2n1 [Example 700] |
| ≤ 100 | COCc1nc2ccnc(Nc3cc([C@H]4C[C@@H](OC(=O)NC(C)(C)COC)CO4)[nH]n3)c2s1 [Example 701] |
| ≤ 100 | CCC1(NC(=O)O[C@H]2CO[C@@H](c3cc(Nc4nccn5nc(COC)cc45)n[nH]3)C2)CC1 [Example 705] |
| ≤ 100 | COCc1cc2c(Nc3cc([C@H]4C[C@@H](Oc5nncn5C5(C)CC5)CO4)[nH]n3)nccn2n1 [Example 707] |
| ≤ 100 | COCc1cc2c(Nc3cc([C@H]4C[C@@H](Oc5nncn5C(C)(C)C)CO4)[nH]n3)nccn2n1 [Example 709] |
| ≤ 100 | COCc1cc2c(Nc3cc([C@H]4C[C@@H](OC(=O)NC56CC(F)(C5)C6)CO4)[nH]n3)nccn2n1 [Example 710] |
| ≤ 100 | COCc1cc2c(Nc3cc([C@H]4C[C@@H](OC(=O)NC56CC(Cl)(C5)C6)CO4)[nH]n3)nccn2n1 [Example 712] |
